From article PMC7180948, “New Insights into 4-Anilinoquinazolines as Inhibitors of Cardiac Troponin I–Interacting Kinase (TNNi3K)” (Molecules, 2020)

Assays:
Assay in all cases: biochemical
Parameters in all cases: KINOMEscan competition binding panel (Eurofins DiscoverX), single concentration, percent inhibition
Conditions in all cases: read-out: 15 at 1 µM % inhibition
ACVR1 = ACVR1 (Homo sapiens, UniProt Q04771)
In short: (§1)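 Values come from single-concentration (1 µM) profiling in the Eurofins DiscoverX KINOMEscan competition-binding platform, which covers over 400 kinases.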

ACVR2B = ACVR2B (Homo sapiens, UniProt Q13705)
In short: as §1

ASK1 = target: T1, ASK1 (Homo sapiens, UniProt Q99683)
T1 construct: gene MAP3K5
In short: as §1

BRSK1 = BRSK1 (Homo sapiens, UniProt Q8TDC3)
In short: as §1

CAMK2A = CAMK2A (Homo sapiens, UniProt Q9UQM7)
In short: as §1

CAMKK2 = CAMKK2 (Homo sapiens, UniProt Q96RR4)
In short: as §1

CDK8 = CDK8 (Homo sapiens, UniProt P49336)
In short: as §1

DMPK = DMPK (Homo sapiens, UniProt Q09013)
In short: as §1

DYRK2 = DYRK2 (Homo sapiens, UniProt Q92630)
In short: as §1

EGFR = EGFR (Homo sapiens, UniProt P00533)
In short: as §1

ERBB4 = ERBB4 (Homo sapiens, UniProt Q15303)
In short: as §1

ERK1 = target: T2, ERK1 (Homo sapiens, UniProt P27361)
T2 construct: gene MAPK3
In short: as §1

ERK5 = target: T3, ERK5 (Homo sapiens, UniProt Q13164)
T3 construct: gene MAPK7
In short: as §1

FLT3(N841I) = FLT3(N841I) (Homo sapiens, UniProt P36888, N841I)
In short: as §1

GRK1 = GRK1 (Homo sapiens, UniProt Q15835)
In short: as §1

IKK-alpha = target: T4, IKK-alpha (Homo sapiens, UniProt O15111)
T4 construct: gene CHUK
In short: as §1

MARK1 = MARK1 (Homo sapiens, UniProt Q9P0L2)
In short: as §1

MET(Y1235D) = MET(Y1235D) (Homo sapiens, UniProt P08581, Y1235D)
In short: as §1

MST1R = MST1R (Homo sapiens, UniProt Q04912)
In short: as §1

MST2 = target: T5, MST2 (Homo sapiens, UniProt Q13188)
T5 construct: gene STK3
In short: as §1

PAK1 = PAK1 (Homo sapiens, UniProt Q13153)
In short: as §1

PKAC-alpha = target: T6, PKAC-alpha (Homo sapiens, UniProt P17612)
T6 construct: gene PRKACA
In short: as §1

[1] = target: T7, RSK4(Kin.Dom.2-C-terminal) (Homo sapiens, UniProt Q9UK32)
T7 construct: gene RPS6KA6; Kin.Dom.2-C-terminal
In short: as §1

WNK4 = WNK4 (Homo sapiens, UniProt Q96J92)
In short: as §1

T2 sequence (P27361 whole entry): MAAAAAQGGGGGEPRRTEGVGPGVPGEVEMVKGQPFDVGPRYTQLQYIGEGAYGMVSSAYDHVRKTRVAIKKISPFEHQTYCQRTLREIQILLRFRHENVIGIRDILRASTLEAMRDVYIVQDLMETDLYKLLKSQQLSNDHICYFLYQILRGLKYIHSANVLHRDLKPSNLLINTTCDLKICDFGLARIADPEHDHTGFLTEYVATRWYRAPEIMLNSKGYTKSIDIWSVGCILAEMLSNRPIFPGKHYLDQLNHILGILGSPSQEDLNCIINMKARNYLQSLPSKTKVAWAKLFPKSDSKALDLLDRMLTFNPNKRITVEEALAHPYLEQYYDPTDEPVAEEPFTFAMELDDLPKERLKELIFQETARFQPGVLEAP
T5 sequence (Q13188 whole entry): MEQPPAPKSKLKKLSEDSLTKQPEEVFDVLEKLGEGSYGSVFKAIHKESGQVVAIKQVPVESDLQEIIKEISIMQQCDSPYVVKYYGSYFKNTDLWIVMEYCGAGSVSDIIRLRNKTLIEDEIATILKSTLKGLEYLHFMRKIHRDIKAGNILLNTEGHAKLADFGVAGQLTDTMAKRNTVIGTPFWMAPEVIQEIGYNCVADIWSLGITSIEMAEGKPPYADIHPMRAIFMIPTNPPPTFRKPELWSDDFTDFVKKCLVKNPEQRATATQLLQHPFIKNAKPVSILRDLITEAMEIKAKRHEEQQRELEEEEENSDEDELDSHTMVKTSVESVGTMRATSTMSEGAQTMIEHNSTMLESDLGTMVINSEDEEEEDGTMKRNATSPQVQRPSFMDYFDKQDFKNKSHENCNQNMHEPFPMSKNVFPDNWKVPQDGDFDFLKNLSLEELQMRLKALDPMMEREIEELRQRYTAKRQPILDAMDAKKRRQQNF
T7 sequence (Q9UK32 whole entry): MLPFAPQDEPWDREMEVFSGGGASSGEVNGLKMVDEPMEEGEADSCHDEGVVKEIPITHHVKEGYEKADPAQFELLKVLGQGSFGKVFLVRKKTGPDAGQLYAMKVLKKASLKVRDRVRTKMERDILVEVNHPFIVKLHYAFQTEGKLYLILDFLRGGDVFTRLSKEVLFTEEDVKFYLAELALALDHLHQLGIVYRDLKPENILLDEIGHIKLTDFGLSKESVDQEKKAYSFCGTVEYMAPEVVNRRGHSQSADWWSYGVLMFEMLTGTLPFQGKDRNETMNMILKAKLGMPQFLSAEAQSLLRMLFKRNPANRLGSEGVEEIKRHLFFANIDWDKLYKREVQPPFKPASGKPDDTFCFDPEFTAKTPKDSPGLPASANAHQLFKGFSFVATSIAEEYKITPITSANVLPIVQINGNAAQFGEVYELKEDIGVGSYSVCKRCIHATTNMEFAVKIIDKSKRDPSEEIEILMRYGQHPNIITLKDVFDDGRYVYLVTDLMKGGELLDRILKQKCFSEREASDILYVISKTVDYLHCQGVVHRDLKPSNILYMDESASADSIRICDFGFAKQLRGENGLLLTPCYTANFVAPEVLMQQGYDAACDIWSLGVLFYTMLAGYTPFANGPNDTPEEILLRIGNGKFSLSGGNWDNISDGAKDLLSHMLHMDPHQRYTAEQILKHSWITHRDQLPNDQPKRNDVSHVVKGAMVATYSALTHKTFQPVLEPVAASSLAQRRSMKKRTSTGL
BRSK1, sequence (Q8TDC3 whole entry): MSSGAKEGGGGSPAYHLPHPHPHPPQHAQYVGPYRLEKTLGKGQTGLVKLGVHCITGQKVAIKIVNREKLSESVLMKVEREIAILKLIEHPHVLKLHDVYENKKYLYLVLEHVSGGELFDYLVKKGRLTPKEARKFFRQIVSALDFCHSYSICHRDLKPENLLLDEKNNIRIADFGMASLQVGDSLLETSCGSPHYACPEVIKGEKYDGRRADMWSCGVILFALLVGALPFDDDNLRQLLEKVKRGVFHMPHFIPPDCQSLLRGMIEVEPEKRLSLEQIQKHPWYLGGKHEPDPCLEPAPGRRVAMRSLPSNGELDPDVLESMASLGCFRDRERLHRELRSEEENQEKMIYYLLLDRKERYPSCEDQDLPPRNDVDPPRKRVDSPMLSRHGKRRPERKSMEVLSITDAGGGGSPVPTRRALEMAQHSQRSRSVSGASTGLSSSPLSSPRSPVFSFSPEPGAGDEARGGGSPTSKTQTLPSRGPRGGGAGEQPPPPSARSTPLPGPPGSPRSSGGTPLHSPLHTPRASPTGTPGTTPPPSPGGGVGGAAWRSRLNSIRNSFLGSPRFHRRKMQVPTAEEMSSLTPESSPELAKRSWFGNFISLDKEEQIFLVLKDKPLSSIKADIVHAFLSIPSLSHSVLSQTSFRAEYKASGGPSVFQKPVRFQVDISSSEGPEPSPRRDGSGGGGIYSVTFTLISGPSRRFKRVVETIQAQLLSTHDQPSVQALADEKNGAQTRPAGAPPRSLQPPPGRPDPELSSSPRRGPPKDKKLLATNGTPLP
CDK8, sequence (P49336 whole entry): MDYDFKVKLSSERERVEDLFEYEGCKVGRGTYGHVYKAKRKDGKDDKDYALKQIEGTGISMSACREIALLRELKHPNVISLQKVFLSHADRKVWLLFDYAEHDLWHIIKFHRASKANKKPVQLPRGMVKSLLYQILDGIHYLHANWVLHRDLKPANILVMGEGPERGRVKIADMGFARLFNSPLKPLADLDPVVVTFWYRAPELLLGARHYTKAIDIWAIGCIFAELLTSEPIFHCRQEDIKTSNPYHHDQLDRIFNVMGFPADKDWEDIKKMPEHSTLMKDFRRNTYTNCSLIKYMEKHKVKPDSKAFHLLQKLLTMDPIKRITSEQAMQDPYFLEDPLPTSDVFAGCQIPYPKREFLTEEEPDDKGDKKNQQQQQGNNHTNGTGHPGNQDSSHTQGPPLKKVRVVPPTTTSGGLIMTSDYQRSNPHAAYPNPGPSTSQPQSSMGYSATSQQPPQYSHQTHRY
DMPK, sequence (Q09013 whole entry): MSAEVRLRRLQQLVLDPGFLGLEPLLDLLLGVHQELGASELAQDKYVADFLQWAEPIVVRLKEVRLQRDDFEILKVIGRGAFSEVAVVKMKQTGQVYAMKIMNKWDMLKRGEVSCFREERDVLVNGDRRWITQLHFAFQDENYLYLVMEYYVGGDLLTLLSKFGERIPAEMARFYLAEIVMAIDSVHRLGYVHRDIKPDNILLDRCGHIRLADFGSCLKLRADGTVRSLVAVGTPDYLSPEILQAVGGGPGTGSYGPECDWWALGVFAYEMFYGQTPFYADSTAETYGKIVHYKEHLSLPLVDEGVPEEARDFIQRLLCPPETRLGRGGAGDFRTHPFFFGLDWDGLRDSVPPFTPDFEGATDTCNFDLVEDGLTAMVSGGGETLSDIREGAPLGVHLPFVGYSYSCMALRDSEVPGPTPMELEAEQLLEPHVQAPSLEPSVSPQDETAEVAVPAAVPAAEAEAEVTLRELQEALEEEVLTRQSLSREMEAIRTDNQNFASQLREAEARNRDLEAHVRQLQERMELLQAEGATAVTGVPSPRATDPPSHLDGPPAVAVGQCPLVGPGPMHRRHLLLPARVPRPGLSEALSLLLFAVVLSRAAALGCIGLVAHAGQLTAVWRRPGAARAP
MET(Y1235D), sequence (P08581 whole entry Y1235D): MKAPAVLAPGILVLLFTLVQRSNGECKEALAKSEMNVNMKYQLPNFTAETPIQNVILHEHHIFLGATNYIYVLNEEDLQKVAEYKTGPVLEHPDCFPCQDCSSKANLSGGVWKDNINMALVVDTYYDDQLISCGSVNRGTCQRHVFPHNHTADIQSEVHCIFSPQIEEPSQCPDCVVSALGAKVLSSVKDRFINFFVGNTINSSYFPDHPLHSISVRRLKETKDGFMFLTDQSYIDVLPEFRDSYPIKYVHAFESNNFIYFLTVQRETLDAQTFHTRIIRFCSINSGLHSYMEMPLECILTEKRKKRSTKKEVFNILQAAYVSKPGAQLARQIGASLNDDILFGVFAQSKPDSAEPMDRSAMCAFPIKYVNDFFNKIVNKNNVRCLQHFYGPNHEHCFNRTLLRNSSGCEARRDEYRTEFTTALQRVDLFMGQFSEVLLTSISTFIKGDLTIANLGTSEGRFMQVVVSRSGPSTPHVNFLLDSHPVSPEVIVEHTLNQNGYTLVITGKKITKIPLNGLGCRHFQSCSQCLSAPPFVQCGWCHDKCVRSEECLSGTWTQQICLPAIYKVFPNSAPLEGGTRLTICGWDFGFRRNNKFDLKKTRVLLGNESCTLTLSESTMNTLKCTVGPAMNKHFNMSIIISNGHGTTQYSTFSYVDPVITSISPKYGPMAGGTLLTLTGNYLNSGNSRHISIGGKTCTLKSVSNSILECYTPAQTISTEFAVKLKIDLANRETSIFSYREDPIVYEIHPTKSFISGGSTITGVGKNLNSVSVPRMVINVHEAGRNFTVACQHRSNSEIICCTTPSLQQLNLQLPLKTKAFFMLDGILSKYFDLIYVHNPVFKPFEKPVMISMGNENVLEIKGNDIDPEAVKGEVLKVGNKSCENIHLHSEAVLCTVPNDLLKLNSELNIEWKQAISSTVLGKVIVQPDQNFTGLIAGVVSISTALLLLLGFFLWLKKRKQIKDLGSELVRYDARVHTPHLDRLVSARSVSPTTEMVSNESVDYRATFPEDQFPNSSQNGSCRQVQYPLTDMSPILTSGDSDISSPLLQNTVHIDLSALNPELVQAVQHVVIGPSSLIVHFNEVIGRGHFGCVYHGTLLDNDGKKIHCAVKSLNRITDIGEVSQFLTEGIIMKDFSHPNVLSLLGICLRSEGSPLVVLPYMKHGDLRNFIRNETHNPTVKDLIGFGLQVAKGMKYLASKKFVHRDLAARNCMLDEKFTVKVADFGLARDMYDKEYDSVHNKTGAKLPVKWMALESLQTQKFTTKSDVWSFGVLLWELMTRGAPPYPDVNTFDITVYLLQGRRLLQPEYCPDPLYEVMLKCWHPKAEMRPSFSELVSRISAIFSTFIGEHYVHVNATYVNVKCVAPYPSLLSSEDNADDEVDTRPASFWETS

inhibition at 1 µM (ACVR1): 0% | inhibition at 1 µM (ACVR2B): 0% | inhibition at 1 µM (ASK1): 0% | inhibition at 1 µM (BRSK1): 0% | inhibition at 1 µM (CAMK2A): 4% | inhibition at 1 µM (CAMKK2): 3% | inhibition at 1 µM (CDK8): 0% | inhibition at 1 µM (DMPK): 3% | inhibition at 1 µM (DYRK2): 0% | inhibition at 1 µM (EGFR): 0% | inhibition at 1 µM (ERBB4): 0% | inhibition at 1 µM (ERK1): 0% | inhibition at 1 µM (ERK5): 5% | inhibition at 1 µM (FLT3(N841I)): 0% | inhibition at 1 µM (GRK1): 20% | inhibition at 1 µM (IKK-alpha): 33% | inhibition at 1 µM (MARK1): 0% | inhibition at 1 µM (MET(Y1235D)): 0% | inhibition at 1 µM (MST1R): 9% | inhibition at 1 µM (MST2): 4% | inhibition at 1 µM (PAK1): 1% | inhibition at 1 µM (PKAC-alpha): 0% | inhibition at 1 µM [1]: 3% | inhibition at 1 µM (WNK4): 0%
SMILES: CNS(=O)(=O)c1ccc(N(C)C)c(Nc2nc(C)nc3cc(OC)c(OC)cc23)c1 [compound 15, 3-((6,7-dimethoxy-2-methylquinazolin-4-yl)amino)-4-(dimethylamino)-N-methylbenzenesulfonamide]
